Measurements as given in PMC6479881 (Molecules, 2019).

Target: T1, Enterococcus faecalis thymidylate synthase (EfTS) (Enterococcus faecalis, UniProt Q834R3)
T1 construct: gene thyA
T1 sequence (Q834R3 1-315): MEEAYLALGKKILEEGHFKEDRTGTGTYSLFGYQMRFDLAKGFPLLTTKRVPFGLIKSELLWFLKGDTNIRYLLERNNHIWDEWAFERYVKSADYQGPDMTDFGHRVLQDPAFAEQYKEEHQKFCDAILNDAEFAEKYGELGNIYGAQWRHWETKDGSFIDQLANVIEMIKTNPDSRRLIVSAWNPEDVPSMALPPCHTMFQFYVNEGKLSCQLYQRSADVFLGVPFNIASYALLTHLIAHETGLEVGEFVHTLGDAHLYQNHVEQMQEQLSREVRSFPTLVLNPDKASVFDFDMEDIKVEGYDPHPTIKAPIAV
Assay: crystal structure at […] Å; spectrophotometric enzyme inhibition assay (IC50 […], Ki calculated)
Assay type: biochemical

O=c1[nH]c(=O)n([C@H]2C[C@H](O)[C@@H](COP(=O)(O)O)O2)cc1F [FdUMP, 5-fluoro-2′-deoxyuridine-5′-monophosphate]
Ki: 74 nM
